Data as given in patent US10633379B2, “Bromodomain inhibitors” (AbbVie Inc., priority 2016, dated 2020).

Experiments:
BRD4 (BDII_E352-M457) = BRD4 (BDII_E352-M457) (Homo sapiens (Human), UniProt O60885); test: TR-FRET bromodomain binding assay, BRD4 BDII; conditions: mean Ki, calculated from IC50, probe Kd and probe concentration
Summary of the method: (§1)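 Probe displacement measured by TR-FRET after 1 h at room temperature, in 20 mM sodium phosphate pH 6.0 and 2% DMSO. BDI used 12 nM protein with 100 nM probe, BDII 4 nM with 30 nM probe, each with 1 nM europium antibody. Ki derived from fitted IC50, probe Kd and probe level.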

BRD4 (BDI_K57-E168) = BRD4 (BDI_K57-E168) (Homo sapiens (Human), UniProt O60885); test: TR-FRET bromodomain binding assay, BRD4 BDI; conditions: mean Ki, calculated from IC50, probe Kd and probe concentration
Summary of the method: as §1

Row | Molecule | Ki (BRD4 (BDII_E352-M457)) [µM] | Ki (BRD4 (BDI_K57-E168)) [µM]
1 | Cc1cccc(Cl)c1Oc1ccc(C(C)(O)CO)cc1-c1cn(C)c(=O)c2[nH]c(C(=O)NC(C)(C)C)cc12 (stereo not drawn) [Example 116, N-tert-butyl-4-[2-(2-chloro-6-methylphenoxy)-5-(1,2-dihydroxypropan-2-yl)phenyl]-6-methyl-7-oxo-6,7-dihydro-1H-pyrrolo[2,3-c]pyridine-2-carboxamide] | 0.0029 | 0.756
2 | Cc1cccc(C)c1Oc1ccc(C(C)(C)O)cc1-c1cn(C)c(=O)c2[nH]c(C(N)=O)cc12 [Example 117, 4-[2-(2,6-dimethylphenoxy)-5-(2-hydroxypropan-2-yl)phenyl]-6-methyl-7-oxo-6,7-dihydro-1H-pyrrolo[2,3-c]pyridine-2-carboxamide] | 0.0015 | 0.215
3 | Cc1cc(F)cc(Cl)c1Oc1ccc(C(C)(O)CO)cc1-c1cn(C)c(=O)c2[nH]c(C(=O)NC(C)(C)C)cc12 (stereo not drawn) [Example 118, N-tert-butyl-4-[2-(2-chloro-4-fluoro-6-methylphenoxy)-5-(1,2-dihydroxypropan-2-yl)phenyl]-6-methyl-7-oxo-6,7-dihydro-1H-pyrrolo[2,3-c]pyridine-2-carboxamide] | 0.0104 | 1.39
4 | CCNC(=O)c1cc2c(-c3cc(C(C)(O)CO)ccc3Oc3c(C)cc(F)cc3Cl)cn(C)c(=O)c2[nH]1 (stereo not drawn) [Example 119, 4-[2-(2-chloro-4-fluoro-6-methylphenoxy)-5-(1,2-dihydroxypropan-2-yl)phenyl]-N-ethyl-6-methyl-7-oxo-6,7-dihydro-1H-pyrrolo[2,3-c]pyridine-2-carboxamide] | 0.0022 | 0.346
5 | CNC(=O)c1cc2c(-c3cc(C(C)(C)O)ccc3Oc3c(C)cc(F)cc3C)cn(C)c(=O)c2[nH]1 [Example 120, 4-[2-(4-fluoro-2,6-dimethylphenoxy)-5-(2-hydroxypropan-2-yl)phenyl]-N,6-dimethyl-7-oxo-6,7-dihydro-1H-pyrrolo[2,3-c]pyridine-2-carboxamide] | 0.0008 | 0.161
6 | Cc1cc(F)cc(C)c1Oc1ccc(C(C)(C)O)cc1-c1cn(C)c(=O)c2[nH]c(C(=O)NC3CC3)cc12 [Example 121, N-cyclopropyl-4-[2-(4-fluoro-2,6-dimethylphenoxy)-5-(2-hydroxypropan-2-yl)phenyl]-6-methyl-7-oxo-6,7-dihydro-1H-pyrrolo[2,3-c]pyridine-2-carboxamide] | 0.0006 | 0.356
7 | CCNC(=O)c1cc2c(-c3cc(C4(O)CCC4)ccc3Oc3c(C)cc(F)cc3C)cn(C)c(=O)c2[nH]1 [Example 122, N-ethyl-4-[2-(4-fluoro-2,6-dimethylphenoxy)-5-(1-hydroxycyclobutyl)phenyl]-6-methyl-7-oxo-6,7-dihydro-1H-pyrrolo[2,3-c]pyridine-2-carboxamide] | 0.002 | 0.308
8 | CCNC(=O)c1cc2c(-c3cc(C4(O)COC4)ccc3Oc3c(C)cc(F)cc3C)cn(C)c(=O)c2[nH]1 [Example 123, N-ethyl-4-[2-(4-fluoro-2,6-dimethylphenoxy)-5-(3-hydroxyoxetan-3-yl)phenyl]-6-methyl-7-oxo-6,7-dihydro-1H-pyrrolo[2,3-c]pyridine-2-carboxamide] | 0.001 | 0.168
9 | CCNC(=O)c1cc2c(-c3cc(C(C)(C)O)cnc3Oc3c(C)cc(C(C)(C)O)cc3C)cn(C)c(=O)c2[nH]1 [Example 124, N-ethyl-4-{5-(2-hydroxypropan-2-yl)-2-[4-(2-hydroxypropan-2-yl)-2,6-dimethylphenoxy]pyridin-3-yl}-6-methyl-7-oxo-6,7-dihydro-1H-pyrrolo[2,3-c]pyridine-2-carboxamide] | 0.0017 | 0.269
10 | N-tert-butyl-4-[2-(2,6-dimethylphenoxy)-5-(2-hydroxypropan-2-yl)pyridin-3-yl]-6-methyl-7-oxo-6,7-dihydro-1H-pyrrolo[2,3-c]pyridine-2-carboxamide [Example 50] | 0.0013 | 0.318

Second part, the molecule after the results:

Row | Ki (BRD4 (BDII_E352-M457)) [µM] | Ki (BRD4 (BDI_K57-E168)) [µM] | Molecule
11 | 0.0035 | 0.14 | Cc1cc(C(C)(C)O)cc(C)c1Oc1ncc(C(C)(C)O)cc1-c1cn(C)c(=O)c2[nH]c(C(=O)NC(C)(C)C)cc12 [Example 125, N-tert-butyl-4-{5-(2-hydroxypropan-2-yl)-2-[4-(2-hydroxypropan-2-yl)-2,6-dimethylphenoxy]pyridin-3-yl}-6-methyl-7-oxo-6,7-dihydro-1H-pyrrolo[2,3-c]pyridine-2-carboxamide]
12 | 0.0063 | 1.51 | CCNC(=O)c1cc2c(-c3cc(C(C)(O)CO)ccc3Oc3c(C)cccc3C(F)(F)F)cn(C)c(=O)c2[nH]1 (stereo not drawn) [Example 126, 4-{5-(1,2-dihydroxypropan-2-yl)-2-[2-methyl-6-(trifluoromethyl)phenoxy]phenyl}-N-ethyl-6-methyl-7-oxo-6,7-dihydro-1H-pyrrolo[2,3-c]pyridine-2-carboxamide]
13 | 0.0205 | 6.58 | Cc1cccc(C(F)(F)F)c1Oc1ccc(C(C)(O)CO)cc1-c1cn(C)c(=O)c2[nH]c(C(=O)NC(C)(C)C)cc12 (stereo not drawn) [Example 127, N-tert-butyl-4-{5-(1,2-dihydroxypropan-2-yl)-2-[2-methyl-6-(trifluoromethyl)phenoxy]phenyl}-6-methyl-7-oxo-6,7-dihydro-1H-pyrrolo[2,3-c]pyridine-2-carboxamide]
14 | 0.0013 | 0.469 | CCNC(=O)c1cc2c(-c3cc(C(C)(O)CCCO)ccc3Oc3c(C)cc(F)cc3C)cn(C)c(=O)c2[nH]1 (stereo not drawn) [Example 128, 4-[5-(2,5-dihydroxypentan-2-yl)-2-(4-fluoro-2,6-dimethylphenoxy)phenyl]-N-ethyl-6-methyl-7-oxo-6,7-dihydro-1H-pyrrolo[2,3-c]pyridine-2-carboxamide]
15 | 0.0023 | 0.649 | CCNC(=O)c1cc2c(-c3cc(C4(O)CCOCC4)ccc3Oc3c(C)cc(F)cc3C)cn(C)c(=O)c2[nH]1 [Example 129, N-ethyl-4-[2-(4-fluoro-2,6-dimethylphenoxy)-5-(4-hydroxyoxan-4-yl)phenyl]-6-methyl-7-oxo-6,7-dihydro-1H-pyrrolo[2,3-c]pyridine-2-carboxamide]
